How the values were obtained:
[1] = tested on: Pseudomonas syringae p.v. syringae; test: Effect of the antipathogenic protein on bacterial pathogens (growth inhibition); assay type: cell-based; conditions: concentration where the bacteria growth is inhibit in a 50%; ± standard deviation
Phytophthora infestans = assay type: cell-based; conditions: different concentrations
[2] = tested on: Erwinia chrysanthemi p.v. zea; test: Effect of the antipathogenic protein on bacterial pathogens (growth inhibition); assay type: cell-based; conditions: concentration where the bacteria growth is inhibit in a 50%; ± standard deviation
[3] = tested on: Erwinia carotovorum p.v. carotovora; test: as above; assay type: cell-based; conditions: concentration where the bacteria growth is inhibit in a 50%; ± standard deviation
[4] = tested on: Xanthomonas campestris p.v. phaseoli; test: as above; assay type: cell-based; conditions: concentration where the bacteria growth is inhibit in a 50%; ± standard deviation
Pseudomonas avenae = test: as above; assay type: cell-based; conditions: concentration where the bacteria growth is inhibit in a 50%; ± standard deviation
Cándida albicans = conditions: cited from earlier work
several plant pathogens = assay type: cell-based

NmDef-02: new anti-pathogenic small cysteine rich protein isolated from Nicotiana megalosiphon; also chemically synthesized without the signal peptide (RECKAQGRHTTCFRDANCVQVCEKQAGWSHGDCRAQFKCKCIFEC; Nicotiana megalosiphon)
IC50 [1]: 26 ± 6 µM | inhibition of the growth of P. infestans (Phytophthora infestans; FIG. 4B): high levels of inhibition growth | IC50 [2]: 11 ± 8 µM | IC50 [3]: 86 ± 8 µM | IC50 [4]: 40 ± 3 µM | IC50 (Pseudomonas avenae): 17 ± 5 µM

Rs-AFP2: plant anti-pathogenic protein from the literature (QKLCQRPSGTWSGVCGNNNACKNQCIRLEKARHGSCNYVFPAHKCICYFPC; UniProt P30230 30-80, looked up)
activity against Cándida albicans (Cándida albicans): active in micromolar concentrations

SEQ ID No. 9: fragment of the antipathogenic protein NmDef-02 obtained by chemical synthesis (QAGWSHGDCRAQFKCKCIFEC; Nicotiana megalosiphon)
effect of fragments on the pathogen P. infestans (Phytophthora infestans; FIG. 6): control or inhibition of pathogen

B1: NmDef-Plus: antipathogenic protein fused to the signal peptide of the Saccharomyces cerevisiae alpha factor, expressed in Pichia pastoris (protein)
chain: APVNTTTEDETAQIPAEAVIGYSDLEGDFDVAVLPFSNSTNNGLLFINTTIASIAAKEEGVSRECKAQGRHTTCFRDANCVQVCEKQAGWSHGDCRAQFKCKCIFEC
inhibition of the growth of plant pathogens (several plant pathogens): high levels of inhibition growth
